US9428519B2, “Acylated derivative of homoharringtonine, preparation method therefor, and application thereof” (HANGZHOU BENSHENG PHARMACEUTICAL CO., LTD., priority 2011, dated 2016)
≈ marks a conversion by molar mass, not a printed value.

Experiments:
[1] = tested on: H9 (acute lymphoblastic leukemia, ALL); experiment: MTT growth inhibition of leukemia cells, 72 h; type: cell-based, human; settings: MTT
Summary of the method: (§1)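 Seed 6000 cells/well (1640, 10% FBS); add compound at several concentrations, mix; incubate 72 h, 37 °C, 5% CO2; MTT read; % viability vs untreated control; IC50 at 72 h.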

[2] = tested on: Jurkat (acute lymphoblastic leukemia, ALL); experiment: MTT growth inhibition of leukemia cells, 72 h; type: cell-based, human
Summary of the method: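 Jurkat human acute lymphoblastic leukemia cells were seeded at 6000 cells per well in 96-well plates containing 1640 medium with 10% fetal bovine serum. Test compounds were added across a range of concentrations, and plates were held at 37° C. in 5% CO2 for 72 hours before viable cells were quantified by MTT.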

[3] = tested on: K562/adr (drug-resistant, chronic myeloid leukemia, CML); experiment: MTT growth inhibition of leukemia cells, 72 h; type: cell-based, human; settings: MTT
Summary of the method: as §1

[4] = tested on: Kasumi-1 (acute myeloid leukemia M2 type, AML-M2); experiment: MTT growth inhibition of leukemia cells, 72 h; type: cell-based, human
Summary of the method: as §1

[5] = tested on: NB4 (acute promyelocytic leukemia, AML); experiment: MTT growth inhibition of leukemia cells, 72 h; type: cell-based, human; settings: MTT
Summary of the method: as §1

[6] = tested on: RPMI8226 (multiple myeloma); experiment: MTT growth inhibition of multiple myeloma cells, 72 h; type: cell-based, human
Summary of the method: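 RPMI8226 cells (6000/well) in 1640 medium with 10% FBS were exposed to graded compound concentrations for 72 h at 37 °C, 5% CO2. Viable cells were read by MTT, normalised to untreated control as 100% viability, and 72 h IC50 calculated.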

A549 (human lung cancer) = experiment: MTT growth inhibition of human solid tumor cells, 72 h; type: cell-based
Summary of the method: (§2)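 MTT determination of viable cells gives percent viability, normalised to untreated wells taken as 100%. Cells (4000 per well) grew 24 h in serum-supplemented DMEM high glucose, then faced graded compound concentrations for 72 h at 37° C under 5% CO2.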

[7] = tested on: Becap37 (human breast cancer cell); experiment: as above; type: cell-based
Summary of the method: as §2

[8] = tested on: CNE (nasopharyngeal carcinoma cell); experiment: as above; type: cell-based; settings: MTT
Summary of the method: as §2

[9] = tested on: CaES-17 (esophageal cancer cell); experiment: as above; type: cell-based
Summary of the method: as §2

[10] = tested on: Hela (human cervical cancer cell); experiment: as above; type: cell-based; settings: MTT
Summary of the method: as §2

[11] = tested on: Hep-2 (laryngeal carcinoma); experiment: as above; type: cell-based
Summary of the method: as §2

[12] = tested on: Huh7 (human liver cancer cell); experiment: as above; type: cell-based
Summary of the method: as §2

MG63 (osteosarcoma) = experiment: as above; type: cell-based
Summary of the method: as §2

[13] = tested on: MGC 803 (human gastric cancer cell); experiment: as above; type: cell-based
Summary of the method: as §2

[14] = tested on: PANC-1 (pancreatic cancer); experiment: as above; type: cell-based
Summary of the method: as §2

PC-3 (prostate cancer) = experiment: as above; type: cell-based; settings: MTT
Summary of the method: as §2

[15] = tested on: RKO (human colon adenocarcinoma cell); experiment: as above; type: cell-based
Summary of the method: as §2

[16] = tested on: SK-OV-3 (ovarian cancer cell); experiment: as above; type: cell-based
Summary of the method: as §2

[17] = tested on: U87 MG (malignant glioma cell); experiment: as above; type: cell-based
Summary of the method: as §2

COC(=O)C[C@@](CCCC(C)(C)OC(=O)c1scnc1C)(OC(=O)c1scnc1C)C(=O)O[C@@H]1C(OC)=C[C@]23CCCN2CCc2cc4c(cc2[C@H]13)OCO4 [BS-HH-0722]
IC50 H9 [1]: 0.47 µg/mL (≈ 0.591 µM) | IC90 H9 [1]: 1.24 µg/mL (≈ 1.56 µM) | IC50 Jurkat [2]: 0.3 µg/mL (≈ 0.377 µM) | IC90 Jurkat [2]: ≥ 16 µg/mL | IC50 K562/adr [3]: 0.9 µg/mL (≈ 1.13 µM) | IC90 K562/adr [3]: 3.72 µg/mL (≈ 4.67 µM) | IC50 Kasumi-1 ([4]; MTT): 0.14 µg/mL (≈ 0.176 µM) | IC90 Kasumi-1 ([4]; MTT): 0.47 µg/mL (≈ 0.591 µM) | IC50 NB4 [5]: 0.2 µg/mL (≈ 0.251 µM) | IC90 NB4 [5]: 0.49 µg/mL (≈ 0.616 µM) | IC50 RPMI8226 ([6]; MTT): 0.29 µg/mL (≈ 0.364 µM) | IC90 RPMI8226 ([6]; MTT): 1.82 µg/mL (≈ 2.29 µM) | IC50 A549 (A549 (human lung cancer)): 0.89 µg/mL (≈ 1.12 µM) | IC90 A549 (A549 (human lung cancer)): >16 µg/mL | IC50 Becap37 [7]: 0.47 µg/mL (≈ 0.591 µM) | IC90 Becap37 [7]: 16 µg/mL (≈ 20.1 µM) | IC50 CNE [8]: 0.77 µg/mL (≈ 0.967 µM) | IC90 CNE [8]: >16 µg/mL | IC50 CaES-17 [9]: 1.24 µg/mL (≈ 1.56 µM) | IC90 CaES-17 [9]: 16 µg/mL (≈ 20.1 µM) | IC50 Hela [10]: 0.87 µg/mL (≈ 1.09 µM) | IC90 Hela [10]: >16 µg/mL | IC50 Hep-2 [11]: 0.48 µg/mL (≈ 0.603 µM) | IC90 Hep-2 [11]: >16 µg/mL | IC50 Huh7 [12]: 0.66 µg/mL (≈ 0.829 µM) | IC90 Huh7 [12]: 7.6 µg/mL (≈ 9.55 µM) | IC50 MG 63 (MG63 (osteosarcoma); MTT): 0.21 µg/mL (≈ 0.264 µM) | IC90 MG 63 (MG63 (osteosarcoma); MTT): 9.43 µg/mL (≈ 11.8 µM) | IC50 MGC 803 [13]: 0.5 µg/mL (≈ 0.628 µM) | IC90 MGC 803 [13]: 12 µg/mL (≈ 15.1 µM) | IC50 PANC-1 ([14]; MTT): 0.83 µg/mL (≈ 1.04 µM) | IC90 PANC-1 ([14]; MTT): >16 µg/mL | IC50 PC-3 (PC-3 (prostate cancer)): 0.82 µg/mL (≈ 1.03 µM) | IC90 PC-3 (PC-3 (prostate cancer)): >16 µg/mL | IC50 RKO ([15]; MTT): 0.22 µg/mL (≈ 0.276 µM) | IC90 RKO ([15]; MTT): 0.87 µg/mL (≈ 1.09 µM) | IC50 SK-OV-3 ([16]; MTT): 1.94 µg/mL (≈ 2.44 µM) | IC90 SK-OV-3 ([16]; MTT): >16 µg/mL | IC50 U87 MG [17]: 0.67 µg/mL (≈ 0.842 µM) | IC90 U87 MG [17]: 3.42 µg/mL (≈ 4.3 µM)

COC(=O)C[C@](O)(CCCC(C)(C)OC(=O)c1ccco1)C(=O)O[C@@H]1C(OC)=C[C@]23CCCN2CCc2cc4c(cc2[C@H]13)OCO4 [BS-HH-059]
IC50 ([1]; Homo sapiens): 0.007 µg/mL (≈ 0.0109 µM) | IC90 ([1]; Homo sapiens): 0.02 µg/mL (≈ 0.0313 µM) | IC50 ([2]; Homo sapiens, Jurkat): 0.003 µg/mL (≈ 0.00469 µM) | IC90 ([2]; Homo sapiens, Jurkat): ≥ 16 µg/mL | IC50 ([3]; Homo sapiens, K562/Adr): 0.03 µg/mL (≈ 0.0469 µM) | IC90 ([3]; Homo sapiens, K562/Adr): 0.35 µg/mL (≈ 0.547 µM) | IC50 ([4]; Homo sapiens, Kasumi 1, MTT): 0.005 µg/mL (≈ 0.00782 µM) | IC90 ([4]; Homo sapiens, Kasumi 1, MTT): 0.012 µg/mL (≈ 0.0188 µM) | IC50 ([5]; Homo sapiens): 0.006 µg/mL (≈ 0.00938 µM) | IC90 ([5]; Homo sapiens): 0.012 µg/mL (≈ 0.0188 µM) | IC50 ([6]; Homo sapiens, RPMI-8226, MTT): 0.006 µg/mL (≈ 0.00938 µM) | IC90 ([6]; Homo sapiens, RPMI-8226, MTT): 0.039 µg/mL (≈ 0.061 µM) | IC50 (A549 (human lung cancer); Homo sapiens, A549): 0.03 µg/mL (≈ 0.0469 µM) | IC90 (A549 (human lung cancer); Homo sapiens, A549): > 16 µg/mL | IC50 ([7]; Homo sapiens): 0.007 µg/mL (≈ 0.0109 µM) | IC90 ([7]; Homo sapiens): 7.4 µg/mL (≈ 11.6 µM) | IC50 ([8]; Homo sapiens): 0.031 µg/mL (≈ 0.0485 µM) | IC90 ([8]; Homo sapiens): > 16 µg/mL | IC50 ([9]; Homo sapiens, CaEs17): 0.029 µg/mL (≈ 0.0453 µM) | IC90 ([9]; Homo sapiens, CaEs17): 16 µg/mL (≈ 25 µM) | IC50 ([10]; Homo sapiens, HeLa): 0.014 µg/mL (≈ 0.0219 µM) | IC90 ([10]; Homo sapiens, HeLa): 16 µg/mL (≈ 25 µM) | IC50 ([11]; Homo sapiens, HEp-2): 0.015 µg/mL (≈ 0.0234 µM) | IC90 ([11]; Homo sapiens, HEp-2): > 16 µg/mL | IC50 ([12]; Homo sapiens, Huh-7): 0.012 µg/mL (≈ 0.0188 µM) | IC90 ([12]; Homo sapiens, Huh-7): 0.081 µg/mL (≈ 0.127 µM) | IC50 (MG63 (osteosarcoma); Homo sapiens, MG-63, MTT): 0.02 µg/mL (≈ 0.0313 µM) | IC90 (MG63 (osteosarcoma); Homo sapiens, MG-63, MTT): 3.08 µg/mL (≈ 4.81 µM) | anti-MG63 effect relative to homoharringtonine (MG63 (osteosarcoma); vs HHT): substantially superior | IC50 ([13]; Homo sapiens, MGC-803): 0.021 µg/mL (≈ 0.0328 µM) | IC90 ([13]; Homo sapiens, MGC-803): 0.11 µg/mL (≈ 0.172 µM) | IC50 ([14]; Homo sapiens, PANC-1, MTT): 0.029 µg/mL (≈ 0.0453 µM) | IC90 ([14]; Homo sapiens, PANC-1, MTT): > 16 µg/mL | IC50 (PC-3 (prostate cancer); Homo sapiens): 0.08 µg/mL (≈ 0.125 µM) | IC90 (PC-3 (prostate cancer); Homo sapiens): > 16 µg/mL | IC50 ([15]; Homo sapiens, MTT): 0.001 µg/mL (≈ 0.00156 µM) | IC90 ([15]; Homo sapiens, MTT): 0.015 µg/mL (≈ 0.0234 µM) | anti-RKO effect relative to homoharringtonine ([15]; vs HHT): substantially superior | IC50 ([16]; Homo sapiens, SK-OV-3, MTT): 0.08 µg/mL (≈ 0.125 µM) | IC90 ([16]; Homo sapiens, SK-OV-3, MTT): > 16 µg/mL | IC50 ([17]; Homo sapiens, U-87 MG): 0.023 µg/mL (≈ 0.036 µM) | IC90 ([17]; Homo sapiens, U-87 MG): 0.18 µg/mL (≈ 0.281 µM)
